Assay results published in publication PMC12136057, “Structural characterization of the ABC transporter DppABCDF in Escherichia coli reveals insights into dipeptide acquisition” (PLOS Biology, 2025).
Values belong to the compound of their own block, whether it stands above or below them. Peptide text beside a SMILES is read from it.

Legend:
[1] = biological target: T1, DppABCDF full transporter (Escherichia coli, UniProt P0AAG0+P37313, P0AAG0:E179Q/P37313:E187Q); experiment: cryo-EM structure of the complex ([…] Å); type: binding; conditions: 2 mM ATPγS, 2 mM MgCl2, on ice; outward-facing; two molecules at the DppD-DppF interface
T1 construct: gene dppD; heteropentamer; structure: DppA C-terminal His-tag and Strep tag, GDN; ATPase: DppBCDF in MSP1E3D1/POPG nanodiscs plus separately purified DppA; Dipeptide transport system permease protein DppB; Dipeptide transport system permease protein DppC
T1 sequence (P0AAG0 whole entry E179Q, one chain of several): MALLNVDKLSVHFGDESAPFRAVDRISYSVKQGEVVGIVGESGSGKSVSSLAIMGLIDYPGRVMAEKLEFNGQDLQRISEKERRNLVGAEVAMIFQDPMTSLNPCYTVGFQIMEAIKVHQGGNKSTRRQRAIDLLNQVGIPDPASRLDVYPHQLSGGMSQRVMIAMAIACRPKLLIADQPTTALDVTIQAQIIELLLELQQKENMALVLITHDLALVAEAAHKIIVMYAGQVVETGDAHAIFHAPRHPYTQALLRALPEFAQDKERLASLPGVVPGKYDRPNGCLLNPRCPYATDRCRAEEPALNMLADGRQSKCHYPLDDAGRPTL
T1 sequence (P37313 whole entry E187Q, one chain of several): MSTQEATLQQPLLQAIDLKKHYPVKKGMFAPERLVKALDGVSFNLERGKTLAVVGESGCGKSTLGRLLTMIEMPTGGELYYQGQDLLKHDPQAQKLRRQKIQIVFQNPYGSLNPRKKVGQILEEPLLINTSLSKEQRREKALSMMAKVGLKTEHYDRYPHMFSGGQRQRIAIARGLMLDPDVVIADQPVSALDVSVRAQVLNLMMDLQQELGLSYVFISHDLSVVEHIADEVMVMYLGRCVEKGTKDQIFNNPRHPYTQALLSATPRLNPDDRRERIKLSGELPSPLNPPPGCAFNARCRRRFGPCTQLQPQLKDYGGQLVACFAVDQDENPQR
T1 sequence (P0AEF8 whole entry partner, one chain of several): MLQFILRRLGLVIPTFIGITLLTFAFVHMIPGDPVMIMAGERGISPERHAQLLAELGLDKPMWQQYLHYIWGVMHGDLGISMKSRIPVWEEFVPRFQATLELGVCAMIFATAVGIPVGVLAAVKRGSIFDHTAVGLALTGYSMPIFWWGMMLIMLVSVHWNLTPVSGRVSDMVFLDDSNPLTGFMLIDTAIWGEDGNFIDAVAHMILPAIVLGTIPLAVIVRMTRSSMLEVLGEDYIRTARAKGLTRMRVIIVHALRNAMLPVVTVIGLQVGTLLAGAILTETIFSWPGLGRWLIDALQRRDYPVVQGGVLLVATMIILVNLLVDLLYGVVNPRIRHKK
T1 sequence (P0AEG1 whole entry partner, one chain of several): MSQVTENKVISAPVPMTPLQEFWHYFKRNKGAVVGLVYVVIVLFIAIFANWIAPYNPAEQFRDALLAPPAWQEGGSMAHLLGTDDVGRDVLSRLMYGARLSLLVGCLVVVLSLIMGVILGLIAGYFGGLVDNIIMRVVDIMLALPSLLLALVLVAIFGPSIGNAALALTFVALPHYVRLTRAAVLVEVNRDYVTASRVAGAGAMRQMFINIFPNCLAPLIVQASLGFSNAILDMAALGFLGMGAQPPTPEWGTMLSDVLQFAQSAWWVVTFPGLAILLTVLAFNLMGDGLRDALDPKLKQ

[2] = biological target: T2, DppA (Escherichia coli, UniProt P23847); experiment: isothermal titration calorimetry; type: binding; conditions: read-out: affinity
T2 construct: soluble periplasmic protein, His-tagged, Ni-NTA with guanidine wash to remove endogenous peptides; expressed in E. coli
T2 sequence (P23847 29-535): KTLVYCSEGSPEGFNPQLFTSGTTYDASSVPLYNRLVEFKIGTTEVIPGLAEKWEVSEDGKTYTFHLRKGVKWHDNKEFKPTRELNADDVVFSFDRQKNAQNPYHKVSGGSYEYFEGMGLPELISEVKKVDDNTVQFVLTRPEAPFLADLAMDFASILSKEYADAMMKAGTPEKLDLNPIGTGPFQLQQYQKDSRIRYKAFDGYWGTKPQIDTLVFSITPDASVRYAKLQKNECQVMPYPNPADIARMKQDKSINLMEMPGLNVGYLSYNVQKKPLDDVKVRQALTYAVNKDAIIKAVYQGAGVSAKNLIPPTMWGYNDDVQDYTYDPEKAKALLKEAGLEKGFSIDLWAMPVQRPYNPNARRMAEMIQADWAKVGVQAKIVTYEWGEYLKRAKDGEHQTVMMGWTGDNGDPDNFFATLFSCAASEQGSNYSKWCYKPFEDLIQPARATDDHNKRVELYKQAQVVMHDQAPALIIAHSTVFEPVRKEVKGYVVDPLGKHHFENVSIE

[3] = biological target: T3, DppBCDF translocator (nucleotide and cluster site of DppF) (Escherichia coli, UniProt P37313); experiment: cryo-EM structure of the complex ([…] Å); type: binding; conditions: cluster in DppF, ligands Cys293, Cys299, Cys306, Cys323; 2 mM DTT
T3 construct: heterotetramer, C-terminal Strep-tag II, expressed in E. coli, DDM then GDN detergent; with Dipeptide transport system permease protein DppB; Dipeptide transport system permease protein DppC
T3 sequence (P37313 whole entry): as the sequence (P37313 whole entry E187Q, one chain of several) above, with Q187E counted along it
T3 sequence (P0AEF8 whole entry partner): as the sequence (P0AEF8 whole entry partner, one chain of several) above
T3 sequence (P0AEG1 whole entry partner): as the sequence (P0AEG1 whole entry partner, one chain of several) above
T3 sequence (P0AAG0 whole entry partner): as the sequence (P0AAG0 whole entry E179Q, one chain of several) above, with Q179E counted along it

[4] = biological target: T4, DppBCDF translocator (cluster site of DppD) (Escherichia coli, UniProt P0AAG0); experiment: cryo-EM structure of the complex ([…] Å); type: binding; conditions: cluster in DppD, ligands Cys284, Cys290, Cys297, Cys315; 2 mM DTT
T4 construct: same complex as P2: heterotetramer, C-terminal Strep-tag II, expressed in E. coli, GDN detergent; with Dipeptide transport system permease protein DppB; Dipeptide transport system permease protein DppC
T4 sequence (P0AAG0 whole entry): as the sequence (P0AAG0 whole entry E179Q, one chain of several) above, with Q179E counted along it
T4 sequence (P0AEF8 whole entry partner): as the sequence (P0AEF8 whole entry partner, one chain of several) above
T4 sequence (P0AEG1 whole entry partner): as the sequence (P0AEG1 whole entry partner, one chain of several) above
T4 sequence (P37313 whole entry partner): as the sequence (P37313 whole entry E187Q, one chain of several) above, with Q187E counted along it

[5] = tested on: T5, DppABCDF full transporter; experiment: malachite green phosphate ATPase assay, nanodiscs; type: biochemical, Escherichia coli; conditions: DppA added, Mg2+, pH 7.5, 37 °C; with or without Ala-Ala
T5 construct: gene dppD; heteropentamer; structure: DppA C-terminal His-tag and Strep tag, GDN; ATPase: DppBCDF in MSP1E3D1/POPG nanodiscs plus separately purified DppA; Dipeptide transport system permease protein DppB; Dipeptide transport system permease protein DppC
T5 sequence (P0AAG0 whole entry, one chain of several): as the sequence (P0AAG0 whole entry E179Q, one chain of several) above, with Q179E counted along it
T5 sequence (P0AEF8 whole entry, one chain of several, further chain): as the sequence (P0AEF8 whole entry partner, one chain of several) above
T5 sequence (P0AEG1 whole entry, one chain of several, further chain): as the sequence (P0AEG1 whole entry partner, one chain of several) above
T5 sequence (P37313 whole entry, one chain of several, further chain): as the sequence (P37313 whole entry E187Q, one chain of several) above, with Q187E counted along it

SMILES: Nc1ncnc2c1ncn2[C@@H]1O[C@H](COP(=O)(O)OP(=O)(O)OP(O)(O)=S)[C@@H](O)[C@H]1O [ATPγS]
cryo-EM structure of the complex (2.73 Å) [1]: two ATPγS molecules bound at the interface of the two NBDs

Kd [2]: ~2.2 µM
SMILES: CC(C)C[C@H](NC(=O)CN)C(=O)O [GL, Gly-Leu]

Kd [2]: ~0.0139 µM
SMILES: C[C@H](N)C(=O)N[C@@H](C)C(=O)O [AA, Ala-Ala] (H-Ala-Ala-OH)

SMILES: [S]12[Fe]3[S]4[Fe]1[S]1[Fe]2[S]3[Fe]41 [[4Fe-4S] cluster]
cryo-EM structure of the complex (3.2 Å) [3]: the [4Fe-4S] cluster in DppF is coordinated by Cys293, Cys299, Cys306 and Cys323
cryo-EM structure of the complex (3.2 Å) [4]: The [4Fe-4S] cluster in DppD is coordinated by Cys284, Cys290, Cys297 and Cys315

SMILES: Nc1ncnc2c1ncn2[C@@H]1O[C@H](COP(=O)(O)OP(=O)(O)OP(=O)(O)O)[C@@H](O)[C@H]1O [ATP]
ATPase activity [5]: high ATPase activity is observed when DppA was supplied in the assay
